From ChEMBL document CHEMBL5154671 (Eur J Med Chem, 2022)
Calls of active or inactive are those of the source. The rule behind the calls is not given here.

Key:
[1] = target: T1, Peroxisome proliferator-activated receptor gamma (Homo sapiens, UniProt P37231); assay: Agonist activity at human PPARgamma measured by dual luciferase reporter gene assay
T1 sequence (P37231 whole entry): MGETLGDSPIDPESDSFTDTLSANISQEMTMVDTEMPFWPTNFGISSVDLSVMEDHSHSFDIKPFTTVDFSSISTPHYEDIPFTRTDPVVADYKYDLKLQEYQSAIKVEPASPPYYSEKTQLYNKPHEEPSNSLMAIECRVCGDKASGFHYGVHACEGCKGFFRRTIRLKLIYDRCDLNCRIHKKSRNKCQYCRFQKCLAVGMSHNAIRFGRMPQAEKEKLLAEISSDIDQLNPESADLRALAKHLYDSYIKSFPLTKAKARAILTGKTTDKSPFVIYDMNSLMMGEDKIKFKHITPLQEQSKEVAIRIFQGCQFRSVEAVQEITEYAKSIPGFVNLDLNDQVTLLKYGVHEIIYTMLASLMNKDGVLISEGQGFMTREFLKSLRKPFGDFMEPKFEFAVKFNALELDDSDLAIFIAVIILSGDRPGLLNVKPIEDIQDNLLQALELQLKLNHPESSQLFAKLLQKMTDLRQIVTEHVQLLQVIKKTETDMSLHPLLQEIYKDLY

[2] = test system: Mus musculus; assay: Hypolipidemic activity in Triton1339W-induced hyperlipidemic ICR mouse model assessed as reduction in plasma TG level at 80 mg/kg, administered once daily for 5 days; assay type: functional, organism-based; conditions: time 5.0 day
[3] = test system: Mus musculus; assay: Anti-NASH activity in high-fat/high-sugar diet and CCl4-induced nonalcoholic steatohepatitis male C57BL/6 mouse assessed as decrease in hepatic TC level at 100 mg/kg, po administered for 4 weeks; assay type: functional, organism-based
[4] = test system: Mus musculus; assay: Anti-NASH activity in high-fat/high-sugar diet and CCl4-induced nonalcoholic steatohepatitis male C57BL/6 mouse assessed as decrease in hepatic TG level at 100 mg/kg, po administered for 4 weeks; assay type: functional, organism-based
[5] = test system: Mus musculus; assay: Anti-NASH activity in high-fat/high-sugar diet and CCl4-induced nonalcoholic steatohepatitis male C57BL/6 mouse assessed as decrease in disease activity score at 100 mg/kg, po administered for 4 weeks; assay type: functional, organism-based
[6] = test system: Mus musculus; assay: Anti-NASH activity in high-fat/high-sugar diet and CCl4-induced nonalcoholic steatohepatitis male C57BL/6 mouse assessed as decrease in lobular inflammation score at 100 mg/kg, po administered for 4 weeks; assay type: functional, organism-based
[7] = test system: Mus musculus; assay: Anti-NASH activity in high-fat/high-sugar diet and CCl4-induced nonalcoholic steatohepatitis male C57BL/6 mouse assessed as decrease in F4/80 expression at 100 mg/kg, po administered for 4 weeks; assay type: functional, organism-based
[8] = test system: Mus musculus; assay: Anti-NASH activity in high-fat/high-sugar diet and CCl4-induced nonalcoholic steatohepatitis male C57BL/6 mouse assessed as decrease in SCD1 mRNA expression at 100 mg/kg, po administered for 4 weeks; assay type: functional, organism-based
[9] = test system: Mus musculus; assay: Anti-NASH activity in high-fat/high-sugar diet and CCl4-induced nonalcoholic steatohepatitis male C57BL/6 mouse assessed as decrease in SREBP-1C mRNA expression at 100 mg/kg, po administered for 4 weeks; assay type: functional, organism-based
[10] = test system: Mus musculus; assay: Anti-inflammatory activity in high-fat/high-sugar diet and CCl4-induced nonalcoholic steatohepatitis male C57BL/6 mouse assessed as decrease in TNF-alpha mRNA expression at 100 mg/kg, po administered for 4 weeks; assay type: functional, organism-based
[11] = test system: Mus musculus; assay: Anti-inflammatory activity in high-fat/high-sugar diet and CCl4-induced nonalcoholic steatohepatitis male C57BL/6 mouse assessed as decrease in IL-6 mRNA expression at 100 mg/kg, po administered for 4 weeks; assay type: functional, organism-based
[12] = test system: Mus musculus; assay: Antioxidant activity in high-fat/high-sugar diet and CCl4-induced nonalcoholic steatohepatitis male C57BL/6 mouse assessed as increase in GPX1 mRNA expression at 100 mg/kg, po administered for 4 weeks; assay type: functional, organism-based
[13] = Acute toxicity in ICR mouse assessed as change in serum AST level at 500 mg/kg, IG; assay type: organism-based; conditions: in vivo, po
[14] = Acute toxicity in ICR mouse assessed as change in serum creatinine level at 500 mg/kg, IG; assay type: organism-based; conditions: in vivo, po
[15] = Acute toxicity in ICR mouse assessed as change in serum CKMB level at 500 mg/kg, IG; assay type: organism-based; conditions: in vivo, po

With `COc1ccc(/C=C/c2cc(OC)cc(OCc3ccc(OCC(=O)O)c(F)c3)c2)cc1` the EC50 [1] was 28.5 µM, the Activity [2] was “Active” and the Activity [3] was “Active”. For the same compound, the Activity [4] was “Active”, the Activity [5] was “Active” and the Activity [6] was “Active”. The Activity [7] was “Active”, the Activity [8] was “Active” and the Activity [9] was “Active”. For the same compound, the Activity [10] was “Active”, the Activity [11] was “Active” and the Activity [12] was “Active”. For the same compound, the Activity [13] was “Non-Toxic”, the Activity [14] was “Non-Toxic” and the Activity [15] was “Non-Toxic”.
